Test results: patent US9068018B2, “Methods of using voltage-gated Hv1 proton channels to detect changes in intracellular pH” (Children's Medical Center Corporation, priority 2006, dated 2015)
Residue numbers refer to the chain shown, from its start.

What was measured:
[1] = test system: human airway epithelial cultures; settings: background description; cited from earlier work
[2] = molecular target: T1, GFP-hHv1 G199C mutant (Homo sapiens, UniProt Q96D96, G199C); test: Patch-clamp currents of GFP-hHv1 G199C mutant in transfected HEK cells; format: cell-based; settings: G199C mutant (engineered Cys at residue 199); FIG. 3
T1 construct: expressed in transfected cells; host or cells: HEK-293 cell clone HM1 (stably expresses the human muscarinic M1 receptor)
T1 sequence (Q96D96 1-273 G199C): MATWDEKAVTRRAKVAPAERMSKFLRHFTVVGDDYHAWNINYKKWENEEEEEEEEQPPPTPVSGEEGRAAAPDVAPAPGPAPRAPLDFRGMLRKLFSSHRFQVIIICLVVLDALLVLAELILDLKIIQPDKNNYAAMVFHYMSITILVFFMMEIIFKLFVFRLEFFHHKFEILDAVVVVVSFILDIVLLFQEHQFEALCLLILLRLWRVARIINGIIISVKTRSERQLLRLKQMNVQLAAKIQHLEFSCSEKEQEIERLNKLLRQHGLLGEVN

[3] = molecular target: T2, wt GFP-hHv1 (Homo sapiens, UniProt Q96D96); test: Patch-clamp currents of wt GFP-hHv1 in transfected HEK cells; format: cell-based; settings: wild-type channel
T2 construct: expressed in transfected cells; host or cells: HEK-293 cell clone HM1 (stably expresses the human muscarinic M1 receptor)
T2 sequence (Q96D96 1-273): T1 sequence (Q96D96 1-273 G199C) with C199G

[4] = test system: T lymphocytes; settings: one day after stimulation; cited from earlier work

Structure (SMILES) | effect on acid secretion across the epithelium [1] | also measured
Nc1ncnc2c1ncn2[C@@H]1O[C@H](COP(=O)(O)OP(=O)(O)OP(=O)(O)O)[C@@H](O)[C@H]1O [ATP] | stimulated | 
C[N+](C)(C)CCSS(C)(=O)=O [MTSET, 2-(trimethylammonium)methanethiosulfonate] |  | effect on hHv1 currents [2]: modulate hHv1 currents; effect on wt GFP-hHv1 currents [3]: little effect
CCCCCCCCCCCCCC(=O)O[C@@H]1[C@@H](C)[C@@]2(O)[C@@H](C=C(CO)C[C@]3(O)C(=O)C(C)=C[C@@H]23)[C@@H]2C(C)(C)[C@]12OC(C)=O [PMA, phorbol 12-myristate 13-acetate] |  | increase of H+ currents in T lymphocytes [4]: 13 fold
Cc1nc2c(OCc3ccccc3)cccn2c1CC#N [Sch-28080] | not | 
[Cl-].[Cl-].[Zn+2] [ZnCl2] | inhibited | 
N=C(N)NC(=O)c1nc(Cl)c(N)nc1N [amiloride] | not | 
CO/C1=C\C(C)=C\[C@@H](C)[C@@H](O)[C@@H](C)C/C(C)=C/C=C/[C@H](OC)[C@@H]([C@@H](C)[C@@H](O)[C@H](C)[C@@]2(O)C[C@@H](O)[C@H](C)[C@@H](C(C)C)O2)OC1=O [bafilomycin A1] | not | 
NCCc1c[nH]cn1 [histamine] | stimulated | 
C[C@@H]1O[C@@H](O[C@H]2C[C@@H](O)[C@]3(CO)[C@H]4[C@H](O)C[C@]5(C)[C@@H](C6=CC(=O)OC6)CC[C@]5(O)[C@@H]4CC[C@]3(O)C2)[C@H](O)[C@H](O)[C@H]1O [ouabain] | not | 
